Data reported in patent US6262054A (priority 1996, dated 2001).
Entries after “also recorded” stand apart in the source; their conditions may differ. Like-named read-outs stand apart in the source and are kept apart here.

Tests used:
[1] = cited from earlier work
dihydrofolate reductase = details: cited from earlier work
[2] = tested on: metastatic colorectal carcinoma; details: single agent; cited from earlier work
[3] = tested on: non-small cell lung cancer; details: single agent; cited from earlier work
smallcell lung cancer = details: single agent; cited from earlier work
non-Hodgkin's lymphoma = details: single agent; cited from earlier work
sensitive tumor cells = details: cited from earlier work
a number of tumors = details: preclinical tests; cited from earlier work
breast cancer = details: cited from earlier work; for curative effect of the single agent: alone, metastatic breast cancer patients; for antitumor activity: single agent
P388 Murine Tumor = experiment: in vivo; details: for Increased Life-Span / Long-term Survivors / Median Survival Time (± SEM): at maximum tolerated dose, q4d × 3 ip
Excerpt: (§1) Combination treatment in mice. The P388 lymphoidal tumor was transplanted intraperitoneally (10^6 cells/mouse) into […] mice. The animals were randomized into control and treated groups after tumor implant. […] Therapy was repeated three times at four day intervals between each treatment.

in vivo = details: mouse, in vivo, ip
Excerpt: as §1

head and neck carcinoma = details: single agent; cited from earlier work
microtubules = details: cited from earlier work
[4] = tested on: refractory ovarian cancer; details: in vivo; cited from earlier work

SMILES: CCC(Cc1cnc2nc(N)nc(N)c2n1)c1ccc(C(=O)N[C@@H](CCC(=O)O)C(=O)O)cc1 (some centres unmarked) [EDX, 10-ethyl-10-deaza-aminopterin]
- dosage limit due to side effects ([1]; given occasionally): up to 120 mg/m^2 /week
- primary toxic effect ([1]; single agent): mucositis
- dosage limit due to side effects ([1]; usual): 80 mg/m^2 body surface area/week
- inhibition of dihydrofolate reductase (dihydrofolate reductase; listed as Edatrexate): inhibits dihydrofolate reductase
- inhibition of dihydrofolate reductase (dihydrofolate reductase; listed as edatrexate): inhibitor of dihydrofolate reductase
- anti-tumor activity [2]: No anti-tumor activity was observed
- response rates [3]: ~30%
- anti-tumor activity (smallcell lung cancer): No anti-tumor activity was observed
- antitumor activity (non-Hodgkin's lymphoma): Antitumor activity of edatrexate has also been observed
- accumulation / retention in tumor cells compared with methotrexate (sensitive tumor cells): accumulated in sensitive tumor cells to a greater extent than its predecessor methotrexate and was more selectively retained by the tumor cells
- antitumor activity compared with methotrexate (a number of tumors): greater antitumor activity than methotrexate against a number of tumors
- curative effect of the single agent (breast cancer): neither edatrexate nor paclitaxel alone is curative for most metastatic breast cancer patients
- antitumor activity (breast cancer): Antitumor activity of edatrexate has also been observed
- Therapeutic activity (in words) (P388 Murine Tumor; P388 in mice, maximum tolerated dose): more effective than MTX
- Increased Life-Span (P388 Murine Tumor): +338%
- Long-term Survivors (P388 Murine Tumor): 1/5
- Median Survival Time (± SEM) (P388 Murine Tumor): 35 ± 4 days
- MTD (in vivo): 100 mg/kg
- antitumor activity (head and neck carcinoma): Antitumor activity of edatrexate has also been observed

SMILES: CN(Cc1cnc2nc(N)nc(N)c2n1)c1ccc(C(=O)N[C@@H](CCC(=O)O)C(=O)O)cc1 [MTX, methotrexate]
- inhibition of dihydrofolate reductase (dihydrofolate reductase): inhibitor of dihydrofolate reductase; also recorded: inhibits dihydrofolate reductase
- Long-term Survivors (P388 Murine Tumor): 0/5
- Median Survival Time (± SEM) (P388 Murine Tumor): 27 ± 3 days
- MTD (in vivo): 55 mg/kg

SMILES: CC(=O)O[C@H]1C(=O)[C@@]2(C)[C@H]([C@H](OC(=O)c3ccccc3)[C@]3(O)C[C@H](OC(=O)[C@H](O)[C@@H](NC(=O)c4ccccc4)c4ccccc4)C(C)=C1C3(C)C)[C@]1(OC(C)=O)CO[C@@H]1C[C@@H]2O [TXL, paclitaxel]
- primary dose limiting toxic effect ([1]; single agent): myelosuppression
- effect on microtubule assembly and stability (microtubules): promotes the assembly of microtubules from tubulin dimers and stabilizes microtubules by preventing depolymerization
- curative effect of the single agent (breast cancer): neither edatrexate nor paclitaxel alone is curative for most metastatic breast cancer patients
- antitumor activity (breast cancer): anti-tumor properties in some breast cancer patients
- Increased Life-Span (P388 Murine Tumor): +100%
- Long-term Survivors (P388 Murine Tumor): 0/5
- Median Survival Time (± SEM) (P388 Murine Tumor): 16 ± 2 days
- MTD (in vivo): 18 mg/kg
- activity [4]: activity against refractory ovarian cancer
